{"source": "patent US20150183827A1", "about": "“CELL PENETRATING PEPTIDES & METHODS OF IDENTIFYING CELL PENETRATING PEPTIDES” (Hoffmann-La Roche Inc., priority 2012, published 2015)", "note": "* marks the point of attachment. FITC = O=C1OC2(c3ccc(O)cc3Oc3cc(O)ccc32)c2ccc(NC(=S)*)cc21; Ahx = NCCCCCC(=O)O"}
{"tested_on": "H460 cells", "experiment": "cell penetration of FITC-tagged peptides in H460 cells (confocal fluorescence imaging)", "format": "cell-based", "settings": "3 μm, 2 hours, FIGS. 3A-3B", "protocol": "The peptides of Examples 1-19 were tested for cell penetration in H460 and HeLa cell lines as follows.\nThe H460 cell line and HeLa (ATCC) were maintained in growth media then passaged every 2-3 days. Growth media for H460 was RPMI 1640, 10% fetal calf serum, sodium pyruvate, antibiotics and glutamine (GIBCO). Growth media for HeLa cells was DMEM supplemented with 10% heat-inactivated fetal calf serum, antibiotics and glutamine (GIBCO).\nCells were plated onto Whatman glass-bottom 96-well plates or Perkin Elmer glass-bottom 96-well plates and cultured overnight. Peptide stocks were prepared in DMSO and were diluted in cell growth media for cellular uptake studies. After 2 and 24 h of peptide incubation at various concentrations, media was removed followed by three washes of acidic saline. Formaldehyde fixation, with or without Hoechst 33342 dye solution (to stain nuclei), was followed by PBS washes. Plates were imaged on the Operetta High Content Imaging system in confocal fluorescence mode using the 40×water immersion high NA objective."}
{"substance": "FITC-6Ahx-KVFSPKKKMEFFLLF-NH2 ({FITC-Ahx}-KVFSPKKKMEFFLLF-NH2; SMILES CSCC[C@H](NC(=O)[C@H](CCCCN)NC(=O)[C@H](CCCCN)NC(=O)[C@H](CCCCN)NC(=O)[C@@H]1CCCN1C(=O)[C@H](CO)NC(=O)[C@H](Cc1ccccc1)NC(=O)[C@@H](NC(=O)[C@H](CCCCN)NC(=O)CCCCCNC(=S)Nc1ccc2c(c1)C(=O)OC21c2ccc(O)cc2Oc2cc(O)ccc21)C(C)C)C(=O)N[C@@H](CCC(=O)O)C(=O)N[C@@H](Cc1ccccc1)C(=O)N[C@@H](Cc1ccccc1)C(=O)N[C@@H](CC(C)C)C(=O)N[C@@H](CC(C)C)C(=O)N[C@@H](Cc1ccccc1)C(N)=O) [Example 12]", "cell penetration as determined by the fluorescence": "low but still cell penetrating"}
{"substance": "FITC-6Ahx-MRMIRFRKKIPYLRY-NH2 ({FITC-Ahx}-MRMIRFRKKIPYLRY-NH2; SMILES CC[C@H](C)[C@H](NC(=O)[C@H](CCSC)NC(=O)[C@H](CCCNC(=N)N)NC(=O)[C@H](CCSC)NC(=O)CCCCCNC(=S)Nc1ccc2c(c1)C(=O)OC21c2ccc(O)cc2Oc2cc(O)ccc21)C(=O)N[C@@H](CCCNC(=N)N)C(=O)N[C@@H](Cc1ccccc1)C(=O)N[C@@H](CCCNC(=N)N)C(=O)N[C@@H](CCCCN)C(=O)N[C@@H](CCCCN)C(=O)N[C@H](C(=O)N1CCC[C@H]1C(=O)N[C@@H](Cc1ccc(O)cc1)C(=O)N[C@@H](CC(C)C)C(=O)N[C@@H](CCCNC(=N)N)C(=O)N[C@@H](Cc1ccc(O)cc1)C(N)=O)[C@@H](C)CC) [Example 14]", "cell penetration as determined by the fluorescence": "low but still cell penetrating"}
{"substance": "FITC-6Ahx-LLPQWPRIRHIKLLR-NH2 ({FITC-Ahx}-LLPQWPRIRHIKLLR-NH2; SMILES CC[C@H](C)[C@H](NC(=O)[C@H](Cc1c[nH]cn1)NC(=O)[C@H](CCCNC(=N)N)NC(=O)[C@@H](NC(=O)[C@H](CCCNC(=N)N)NC(=O)[C@@H]1CCCN1C(=O)[C@H](Cc1c[nH]c2ccccc12)NC(=O)[C@H](CCC(N)=O)NC(=O)[C@@H]1CCCN1C(=O)[C@H](CC(C)C)NC(=O)[C@H](CC(C)C)NC(=O)CCCCCNC(=S)Nc1ccc2c(c1)C(=O)OC21c2ccc(O)cc2Oc2cc(O)ccc21)[C@@H](C)CC)C(=O)N[C@@H](CCCCN)C(=O)N[C@@H](CC(C)C)C(=O)N[C@@H](CC(C)C)C(=O)N[C@@H](CCCNC(=N)N)C(N)=O) [Example 19]", "cell penetration as determined by the fluorescence": "low but still cell penetrating"}
{"substance": "FITC-6Ahx-VKIWFQNRRVRWRKR-NH2 ({FITC-Ahx}-VKIWFQNRRVRWRKR-NH2; SMILES CC[C@H](C)[C@H](NC(=O)[C@H](CCCCN)NC(=O)[C@@H](NC(=O)CCCCCNC(=S)Nc1ccc2c(c1)C(=O)OC21c2ccc(O)cc2Oc2cc(O)ccc21)C(C)C)C(=O)N[C@@H](Cc1c[nH]c2ccccc12)C(=O)N[C@@H](Cc1ccccc1)C(=O)N[C@@H](CCC(N)=O)C(=O)N[C@@H](CC(N)=O)C(=O)N[C@@H](CCCNC(=N)N)C(=O)N[C@@H](CCCNC(=N)N)C(=O)N[C@H](C(=O)N[C@@H](CCCNC(=N)N)C(=O)N[C@@H](Cc1c[nH]c2ccccc12)C(=O)N[C@@H](CCCNC(=N)N)C(=O)N[C@@H](CCCCN)C(=O)N[C@@H](CCCNC(=N)N)C(N)=O)C(C)C) [Example 13]", "cell penetration as determined by the fluorescence": "medium"}
